We go through one compound from article PMC4979471 (Cell Death Discovery, 2015).

Like-named read-outs stand apart in the source and are kept apart here.

Holding throughout (experiment): Kinase selectivity, P33-radiolabeled assay
What all share (format): biochemical
Holding throughout (details): 10 μM ATP

The target in assay [1] is T1, PAK3 (Homo sapiens, UniProt O75914).
T1 construct: purchased Reaction Biology Corp
The method in brief:
(§1)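 Each enzyme was exposed to 10 μM compound, with duplicate measurements, in reactions containing 10 μM ATP. Numbers are remaining activity as a percent of the vehicle (DMSO) signal.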

For assay [2], the target named is T2, ARK5/NUAK1 (Homo sapiens, UniProt O60285).
T2 construct: purchased Reaction Biology Corp
T2 sequence (O60285 1-661): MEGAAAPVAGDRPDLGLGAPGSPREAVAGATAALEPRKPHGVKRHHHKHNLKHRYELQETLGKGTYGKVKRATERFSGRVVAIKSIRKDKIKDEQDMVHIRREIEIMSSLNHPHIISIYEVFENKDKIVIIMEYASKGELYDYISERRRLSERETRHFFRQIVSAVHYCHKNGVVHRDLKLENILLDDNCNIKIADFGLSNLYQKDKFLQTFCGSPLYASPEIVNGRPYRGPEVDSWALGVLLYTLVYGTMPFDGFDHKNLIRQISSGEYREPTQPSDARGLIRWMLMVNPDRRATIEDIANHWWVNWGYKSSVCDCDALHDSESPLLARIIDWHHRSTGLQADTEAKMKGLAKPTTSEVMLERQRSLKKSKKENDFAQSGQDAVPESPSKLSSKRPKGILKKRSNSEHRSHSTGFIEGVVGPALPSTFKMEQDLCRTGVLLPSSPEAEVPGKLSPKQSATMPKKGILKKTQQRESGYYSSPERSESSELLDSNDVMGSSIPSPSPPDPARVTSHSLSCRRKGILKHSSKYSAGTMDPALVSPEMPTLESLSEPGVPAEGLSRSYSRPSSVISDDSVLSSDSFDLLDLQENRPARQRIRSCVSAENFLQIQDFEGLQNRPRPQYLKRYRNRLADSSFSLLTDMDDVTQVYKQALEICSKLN
The method in brief: as §1

In assay [3] the target is T3, ALK5/TGFBR1 (Homo sapiens, UniProt P36897).
T3 construct: purchased Reaction Biology Corp
T3 sequence (P36897 34-503): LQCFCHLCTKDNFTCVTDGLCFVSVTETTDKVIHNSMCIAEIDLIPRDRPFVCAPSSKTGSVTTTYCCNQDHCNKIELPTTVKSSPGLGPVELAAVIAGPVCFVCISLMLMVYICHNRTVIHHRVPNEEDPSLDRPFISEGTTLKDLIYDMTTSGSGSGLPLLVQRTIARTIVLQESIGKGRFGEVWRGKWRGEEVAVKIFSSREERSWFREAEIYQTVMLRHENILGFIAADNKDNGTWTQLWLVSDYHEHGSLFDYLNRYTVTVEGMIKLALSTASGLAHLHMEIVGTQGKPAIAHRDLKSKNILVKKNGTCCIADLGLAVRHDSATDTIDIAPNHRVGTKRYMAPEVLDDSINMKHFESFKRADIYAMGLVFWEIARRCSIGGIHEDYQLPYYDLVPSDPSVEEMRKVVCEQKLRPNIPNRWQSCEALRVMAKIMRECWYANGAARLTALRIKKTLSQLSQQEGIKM
The method in brief:
as §1

The target in assay [4] is T4, Aurora A (Homo sapiens, UniProt O14965).
T4 construct: purchased Reaction Biology Corp
T4 sequence (O14965 1-403): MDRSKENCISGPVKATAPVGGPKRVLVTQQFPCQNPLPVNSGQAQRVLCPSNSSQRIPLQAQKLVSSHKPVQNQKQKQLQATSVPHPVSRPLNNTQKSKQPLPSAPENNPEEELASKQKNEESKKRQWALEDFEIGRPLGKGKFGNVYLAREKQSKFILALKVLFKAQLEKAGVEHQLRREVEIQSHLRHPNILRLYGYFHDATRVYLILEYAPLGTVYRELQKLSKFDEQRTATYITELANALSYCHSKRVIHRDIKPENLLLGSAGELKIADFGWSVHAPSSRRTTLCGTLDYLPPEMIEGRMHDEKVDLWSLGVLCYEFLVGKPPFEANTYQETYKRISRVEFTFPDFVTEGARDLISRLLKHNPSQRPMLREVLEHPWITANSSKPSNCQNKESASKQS
The method in brief:
as §1

Assay [5] addresses T5, DYRK3 (Homo sapiens, UniProt O43781).
T5 construct: purchased Reaction Biology Corp
T5 sequence (O43781 1-588): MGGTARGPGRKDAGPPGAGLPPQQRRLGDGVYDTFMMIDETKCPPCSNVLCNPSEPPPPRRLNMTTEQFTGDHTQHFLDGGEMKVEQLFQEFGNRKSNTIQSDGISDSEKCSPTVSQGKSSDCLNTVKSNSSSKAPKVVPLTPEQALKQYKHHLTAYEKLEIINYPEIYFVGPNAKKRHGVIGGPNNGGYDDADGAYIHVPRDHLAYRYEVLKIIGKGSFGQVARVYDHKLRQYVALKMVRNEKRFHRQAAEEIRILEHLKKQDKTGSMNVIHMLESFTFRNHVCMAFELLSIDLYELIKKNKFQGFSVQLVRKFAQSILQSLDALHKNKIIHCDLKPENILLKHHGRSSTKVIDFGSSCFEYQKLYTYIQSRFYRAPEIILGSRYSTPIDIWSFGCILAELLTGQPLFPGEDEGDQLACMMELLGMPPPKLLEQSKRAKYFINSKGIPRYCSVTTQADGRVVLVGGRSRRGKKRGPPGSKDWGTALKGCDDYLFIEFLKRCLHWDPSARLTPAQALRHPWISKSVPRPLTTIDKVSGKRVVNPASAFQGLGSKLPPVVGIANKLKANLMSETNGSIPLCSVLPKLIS
The method in brief:
as §1

Assay [6] addresses T6, PKN1/PRK1 (Homo sapiens, UniProt Q16512).
T6 construct: purchased Reaction Biology Corp
The method in brief: as §1

Setting [7] is: read-out: % Enzyme Activity (relative to DMSO controls) AVG.
Where [8] appears, read: read-out: % Enzyme Activity (relative to DMSO controls) Data 1.
[9] abbreviates: read-out: % Enzyme Activity (relative to DMSO controls) Data 2.

T1 sequence (O75914 whole entry): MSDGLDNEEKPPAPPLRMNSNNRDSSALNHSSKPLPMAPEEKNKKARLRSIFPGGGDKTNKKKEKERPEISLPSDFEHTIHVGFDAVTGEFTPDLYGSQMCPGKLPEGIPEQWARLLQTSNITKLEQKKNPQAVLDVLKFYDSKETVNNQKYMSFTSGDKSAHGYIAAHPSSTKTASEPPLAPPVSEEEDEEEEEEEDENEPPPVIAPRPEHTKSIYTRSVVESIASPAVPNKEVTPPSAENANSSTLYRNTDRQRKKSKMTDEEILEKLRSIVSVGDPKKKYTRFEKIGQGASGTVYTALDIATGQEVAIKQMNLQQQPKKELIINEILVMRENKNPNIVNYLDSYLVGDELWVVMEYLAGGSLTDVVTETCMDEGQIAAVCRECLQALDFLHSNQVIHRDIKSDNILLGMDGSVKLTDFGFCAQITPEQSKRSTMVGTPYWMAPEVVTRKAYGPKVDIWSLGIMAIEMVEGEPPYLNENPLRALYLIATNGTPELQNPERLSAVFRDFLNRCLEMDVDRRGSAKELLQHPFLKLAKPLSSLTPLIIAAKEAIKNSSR
T6 sequence (Q16512 whole entry): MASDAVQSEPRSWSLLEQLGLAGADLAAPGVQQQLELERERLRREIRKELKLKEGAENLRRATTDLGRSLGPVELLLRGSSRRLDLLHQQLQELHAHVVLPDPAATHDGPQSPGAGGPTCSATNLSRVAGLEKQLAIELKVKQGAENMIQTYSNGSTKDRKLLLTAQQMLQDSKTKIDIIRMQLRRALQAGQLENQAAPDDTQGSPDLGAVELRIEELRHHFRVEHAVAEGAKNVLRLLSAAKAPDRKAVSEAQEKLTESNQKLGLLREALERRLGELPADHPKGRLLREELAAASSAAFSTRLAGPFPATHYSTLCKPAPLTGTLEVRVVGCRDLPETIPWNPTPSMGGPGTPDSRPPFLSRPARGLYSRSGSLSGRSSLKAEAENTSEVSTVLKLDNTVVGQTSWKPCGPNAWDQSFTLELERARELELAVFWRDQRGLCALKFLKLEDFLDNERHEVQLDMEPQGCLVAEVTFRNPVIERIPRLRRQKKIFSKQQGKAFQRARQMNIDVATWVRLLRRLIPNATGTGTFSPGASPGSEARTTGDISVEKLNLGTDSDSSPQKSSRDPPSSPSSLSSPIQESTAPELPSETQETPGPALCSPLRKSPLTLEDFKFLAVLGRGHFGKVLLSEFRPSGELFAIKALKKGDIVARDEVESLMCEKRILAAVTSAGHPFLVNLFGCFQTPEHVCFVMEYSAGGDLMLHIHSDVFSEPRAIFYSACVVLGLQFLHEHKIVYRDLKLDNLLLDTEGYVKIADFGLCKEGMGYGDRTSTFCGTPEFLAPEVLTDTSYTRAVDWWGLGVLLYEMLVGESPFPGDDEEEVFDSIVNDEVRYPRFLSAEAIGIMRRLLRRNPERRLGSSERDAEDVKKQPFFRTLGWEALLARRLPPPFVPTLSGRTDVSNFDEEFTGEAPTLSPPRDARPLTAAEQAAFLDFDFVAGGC

Take `CC(C)(C)C(=O)N1N=CC[C@H]1c1ccccc1` [GSK′963]: the remaining activity at 10 µM turned out to be 103% in assay [1] (setting [7]); 102% in assay [1] (setting [8]); 105% in assay [1] (setting [9]); 98% in assay [2] (setting [7]); 95.8% in assay [2] (setting [8]); 100% in assay [2] (setting [9]). Also, the remaining activity at 10 µM in assay [3] (setting [7]) is 94.1%; in assay [3] (setting [8]), 97%; in assay [3] (setting [9]), 91.2%; in assay [4] (setting [7]) it was 102%; in assay [4] (setting [8]), 101%; in assay [4] (setting [9]), 102%. The remaining activity at 10 µM in assay [5] (setting [7]) came to 115%; in assay [5] (setting [8]) it was 113%; in assay [5] (setting [9]), 116%; in assay [6] (setting [7]) it was 103%; in assay [6] (setting [8]), 104%; in assay [6] (setting [9]), 102%.
